Test system: feces of an equol producer (microorganisms having conversion ability to equol)
Assay: Effect of carbohydrates upon equol production in anaerobic culture of feces of an equol producer with daidzein
Assay type: cell-based
Conditions: Homo sapiens; relative to medium containing no carbohydrate (=100%); carbohydrate 1%, daidzein 100 μM, 16 hours; read-out: Equol concentration regulating activity
Text: The equol concentration regulating activity of a carbohydrate can be checked by taking feces from a human having ability to produce equol (equol producer), adding daidzein serving as a substrate for equol and a target carbohydrate to the feces thus taken, culturing the feces, determining the concentration of equol in the culture medium and fitting the determined equol concentration to the following equation in comparison with the concentration of equol in a culture medium containing no carbohydrate. Equal concentration regulating activity (%)=(equol concentration of a culture medium containing a target carbohydrate)/(equol concentration of a culture medium containing no carbohydrate)×100
Fresh feces of an equol producer were suspended in a dilute solution (10-fold by volume) containing 0.00255% of KH2PO4, 0.00255% of K2HPO4, 0.006% of NaCl, […] of (NH4)2SO4, 0.000255% of CaCl2, 0.000255% of MgSO4, 0.1% of a 0.1% resazurin solution, 2.2% of an 8% Na2CO3 solution and 0.05% of L-cysteine hydrochloride by use of glass beads (φ 3 mm) in anaerobic conditions and solid matter was removed by use of sterilized gauze. The solution was centrifuged at 8,000 rpm for 10 minutes. Precipitation was suspended in a dilute solution in the same amount thereof. The solution was stored in a freezer at −30° C. as it was.
The feces dilution solution was thawed and centrifuged again. Precipitation was resuspended in PY medium (100-fold by volume) containing 0.5% of peptone, 0.5% of trypticase peptone, 1% of yeast extract, 0.00005% of hemin, 0.0001% of vitamin K1, 0.05% of L-cysteine hydrochloride, 0.0006% of KH2PO4, 0.0006% of K2HPO4, 0.0012% of NaCl, 0.0006% of (NH4)2SO4, 0.00006% of CaCl2 and 0.00006% of MgSO4. At this time, adonitol, arabinose, cellobiose, erythritol, fructo-oligosaccharide, fructose, galactose, glucose, glycogen, inositol, […], lactitol, lactose, lactulose, maltose, mannitol, mannose, melezitose, melibiose, raffinose, rhamnose, ribose, sorbitol, sorbose, sucrose, trehalose, xylose, or galacto-oligosaccharide was added so as to obtain a final concentration of 1%. Simultaneously, a series of sample containing no carbohydrate was prepared. To the series of samples, daidzein was added so as to obtain a final concentration of 100 μM. Culture was performed in completely anaerobic conditions at 37° C. for 16 hours. Note that culture was performed independently in four series. From the culture solution obtained, daidzein and equol were extracted and subjected to HPLC analysis. Note that inositol used herein is myo-inositol manufactured by SIGMA and glycogen was one derived from oyster and manufactured by SIGMA. Trehalose is D(+) trehalose (α,α form) manufactured by SIGMA and galacto-oligosaccharide is TOS-S, which is a mixture of 4′galactosyl-lactose and 6′galactosyl-lactose, and manufactured by Yakult Pharmaceutical Industry Co., Ltd. Fructo-oligosaccharide is a mixture of 1-kestose, nystose and 1-fructosyl-D-nystose manufactured by Wako Pure Chemical Industries, Ltd.
Daidzein and equol were extracted by the following manner. To 500 μL of a culture solution, 250 μL of diethyl ether was added and sufficiently stirred. The solution mixture was centrifuged at 2,000 rpm for 10 minutes to obtain a diethyl ether layer. The remaining aqueous layer was subjected to diethyl ether extraction performed in the same manner. The ether layers obtained in the two extraction operations were combined, concentrated and dried under spray of nitrogen gas flow at 40° C. The dried product was dissolved in 250 μL of 80% methanol and filtrated through a filter to obtain a sample to be subjected to measurement.
Furthermore, HPLC was performed in the following conditions:
Daidzein and equol standard products were poured in the aforementioned conditions to form calibration curves, respectively. In this manner, daidzein and equol concentrations of the samples were determined. […]

Compound | activity at 1 %
O[C@H]1[C@H](O)[C@@H](O)[C@H](O)[C@@H](O)[C@H]1O [Inositol, myo-inositol] | 416%
OC[C@@H](O)[C@@H](O[C@@H]1O[C@H](CO)[C@H](O)[C@H](O)[C@H]1O)[C@H](O)[C@@H](O)CO [Lactitol, lactitol] | 459%
OC[C@H]1O[C@H](O[C@H]2[C@H](O)[C@@H](O)[C@H](O)O[C@@H]2CO)[C@H](O)[C@@H](O)[C@@H]1O [Maltose, maltose] | 58.5%
OC[C@@H](O)[C@@H](O)[C@H](O)[C@H](O)CO [Mannitol, mannitol] | 182%
OC[C@H]1O[C@@](CO)(O[C@H]2O[C@H](CO)[C@@H](O)[C@H](O)[C@H]2O)[C@@H](O[C@H]2O[C@H](CO)[C@@H](O)[C@H](O)[C@H]2O)[C@@H]1O [Melezitose, melezitose] | 412%
C[C@H](O)[C@H](O)[C@@H](O)[C@@H](O)C=O [Rhamnose, rhamnose] | 116%
O=C[C@H](O)[C@H](O)[C@H](O)CO [Ribose, ribose] | 330%
OC[C@@H](O)[C@@H](O)[C@H](O)[C@@H](O)CO [Sorbitol, sorbitol] | 372%
OC[C@H]1O[C@H](O[C@H]2O[C@H](CO)[C@@H](O)[C@H](O)[C@H]2O)[C@H](O)[C@@H](O)[C@@H]1O [Trehalose, D(+) trehalose] | 404%
O=C[C@H](O)[C@@H](O)[C@H](O)CO [Xylose, xylose] | 443%

Same assay, conditions: Homo sapiens; sample containing no carbohydrate taken as 100%; carbohydrate 1%; read-out: daidzein-to-equol conversion rate

Compound | activity at 1 %
O[C@H]1[C@H](O)[C@@H](O)[C@H](O)[C@@H](O)[C@H]1O [Inositol, myo-inositol] | ≥ 200%
OC[C@@H](O)[C@@H](O[C@@H]1O[C@H](CO)[C@H](O)[C@H](O)[C@H]1O)[C@H](O)[C@@H](O)CO [Lactitol, lactitol] | ≥ 200%
OC[C@H]1O[C@@](CO)(O[C@H]2O[C@H](CO)[C@@H](O)[C@H](O)[C@H]2O)[C@@H](O[C@H]2O[C@H](CO)[C@@H](O)[C@H](O)[C@H]2O)[C@@H]1O [Melezitose, melezitose] | ≥ 200%
O=C[C@H](O)[C@H](O)[C@H](O)CO [Ribose, ribose] | ≥ 200%
OC[C@@H](O)[C@@H](O)[C@H](O)[C@@H](O)CO [Sorbitol, sorbitol] | ≥ 200%
OC[C@H]1O[C@H](O[C@H]2O[C@H](CO)[C@@H](O)[C@H](O)[C@H]2O)[C@H](O)[C@@H](O)[C@@H]1O [Trehalose, D(+) trehalose] | ≥ 200%
O=C[C@H](O)[C@@H](O)[C@H](O)CO [Xylose, xylose] | ≥ 200%

Same assay, conditions: carbohydrate 1%, daidzein 100 μM, anaerobic, 37° C., 16 hours; no carbohydrate 18.1 μM

Compound | Equol concentration in medium
O[C@H]1[C@H](O)[C@@H](O)[C@H](O)[C@@H](O)[C@H]1O [Inositol, myo-inositol] | 75.2 µM
OC[C@@H](O)[C@@H](O[C@@H]1O[C@H](CO)[C@H](O)[C@H](O)[C@H]1O)[C@H](O)[C@@H](O)CO [Lactitol, lactitol] | 82.9 µM
OC[C@H]1O[C@H](O[C@H]2[C@H](O)[C@@H](O)[C@H](O)O[C@@H]2CO)[C@H](O)[C@@H](O)[C@@H]1O [Maltose, maltose] | 10.6 µM
OC[C@@H](O)[C@@H](O)[C@H](O)[C@H](O)CO [Mannitol, mannitol] | 32.9 µM
OC[C@H]1O[C@@](CO)(O[C@H]2O[C@H](CO)[C@@H](O)[C@H](O)[C@H]2O)[C@@H](O[C@H]2O[C@H](CO)[C@@H](O)[C@H](O)[C@H]2O)[C@@H]1O [Melezitose, melezitose] | 74.3 µM
OC[C@H]1O[C@H](OCC2O[C@@H](O)[C@H](O)[C@@H](O)[C@@H]2O)[C@H](O)[C@@H](O)[C@H]1O (stereo partly shown) [Melibiose, melibiose] | 4.5 µM
C[C@H](O)[C@H](O)[C@@H](O)[C@@H](O)C=O [Rhamnose, rhamnose] | 21.0 µM
O=C[C@H](O)[C@H](O)[C@H](O)CO [Ribose, ribose] | 59.5 µM
OC[C@@H](O)[C@@H](O)[C@H](O)[C@@H](O)CO [Sorbitol, sorbitol] | 67.3 µM
OC[C@H]1O[C@H](O[C@H]2O[C@H](CO)[C@@H](O)[C@H](O)[C@H]2O)[C@H](O)[C@@H](O)[C@@H]1O [Trehalose, D(+) trehalose] | 72.9 µM
O=C[C@H](O)[C@@H](O)[C@H](O)CO [Xylose, xylose] | 79.9 µM
glycogen | 33.4 µM

Same assay, conditions: relative to medium containing no carbohydrate (=100%); carbohydrate 1%, daidzein 100 μM, 16 hours

Compound | Equol concentration regulating activity
OC[C@H]1O[C@H](OCC2O[C@@H](O)[C@H](O)[C@@H](O)[C@@H]2O)[C@H](O)[C@@H](O)[C@H]1O (stereo partly shown) [Melibiose, melibiose] | 24.8%
glycogen | 184.8%

Source: US9080197B2, “Equol level regulator” (priority 2005, dated 2015)
